# From ChEMBL document CHEMBL1149732, “New bioactive metabolites from a freshwater isolate of the fungus Kirschsteiniothelia sp” (1992)
# Active and inactive are the calls of the source. The rule behind the calls is not given here.
# Tests used:
# Bacillus subtilis [1] = test: Antimicrobial activity against Bacillus subtilis at 5 ug/disk by disk assay; type: functional, organism-based
# Bacillus subtilis [2] = test: Antimicrobial activity against Bacillus subtilis at 1 ug/disk by disk assay; type: functional, organism-based
# Staphylococcus aureus [3] = test: Antimicrobial activity against Staphylococcus aureus at 10 ug/disk by disk assay; type: functional, organism-based
# A549 = test: Cytotoxicity against human A549 cells; type: functional; settings: read-out: ED50 (the source's name)
# MCF7 = test: Cytotoxicity against human MCF7 cells; type: functional; settings: read-out: ED50 (the source's name)
# HT-29 = test: Cytotoxicity against human HT-29 cells; type: functional; settings: read-out: ED50 (the source's name)
# Staphylococcus aureus [4] = test: Antimicrobial activity against Staphylococcus aureus at 1 ug/disk by disk assay; type: functional, organism-based
compound,measurement,setting,value
Cc1cc(O)c(Cl)c(Oc2c(Cl)c(C)cc(O)c2Cl)c1,Activity,Bacillus subtilis [1],Active
COC1=CC(=O)c2c(cc(OC)c(C(C)C3=C(O)C(=O)c4cc(O)c(C(C)=O)c(O)c4C3=O)c2O)C1=O (configuration not stated) [KIRSCHSTEININ],Activity,Bacillus subtilis [2],Active
same,Activity,Staphylococcus aureus [3],Active
same,EC50,A549,3.1 µg/mL
same,EC50,MCF7,5.2 µg/mL
same,EC50,HT-29,2.7 µg/mL
Cc1cc(O)c(Cl)c(Oc2c(Cl)c(C)cc(O)c2Cl)c1Cl,Activity,Staphylococcus aureus [4],Active
